Data: patent publication US20160067211A1, “PHARMACEUTICAL COMPOSITION” (Eberhard Karls Universitaet Tuebingen Medizinische Fakultaet, priority 2013, published 2016)

Experiments:
[1] = test system: histon protein H3 acetylation in BLM melanoma cells; experiment: Western blot of acetylated histon H3, BLM; format: cell-based, human; conditions: 100 μM, 24 hours, vs. DMSO control
Procedure: FIG. 4: 6-PN and 8-PN induce a hyper acetylation in SK-MEL-28 melanoma cells. Western blot analysis of acetylated histon complex H3 in cellular lysates of BLM and SK-MEL-28 cells treated with 100 μM 6-PN or 8-PN for 1, 2, 4, 12 and 24 h, or with 100 μM SAHA (as reference HDACi) for 24 h. Equal protein loading was verified by vinculin staining (lower rows). At 24 hours (BLM) and 2 hours (SK-MEL-28) after the PN treatment a prominent up-regulation of ac-H3 is detectable. The protein expression levels were estimated performing a densitometric analysis.
The following antibodies were used: Anti-Vinculin and Anti-Actin (1:5000, Sigma-Aldrich), Anti-Acetyl-Histon H3 (1:5000, Millipore, Billerica, USA), Anti-Caspase-3 (1:1000), Anti-AKT, Anti-pAKT, Anti-ERK, Anti-pERK, […], Anti-p70S6 Kinase, and Anti-pS6 protein (1:1000), all from Cell Signaling, Frankfurt, Germany), Anti-LC3 (1:5000, Sigma-Aldrich).
An incubation of cells with HDACi induces generally a hyperacetylation of histon proteins. Therefore, the acetylation status of the histon protein H3 after treatment with 6-PN or 8-PN was investigated. Corresponding to the HDAC screening results, a direct effect was monitored. […] SAHA was used as control HDACi (at 100 μM, 24 hours treatment).

[2] = test system: SK-MEL-28 melanoma cells; experiment: PI/Annexin V staining FACS, SK-MEL-28; format: cell-based, human; conditions: SK-MEL-28, 100 μM; for annexin V positive (apoptotic) cells: DMSO control 2.5%; for PI positive (nectrotic) cells: DMSO control 7.9%
Procedure: (A) Cell cycle FACS analyses of PI stained BLM and SK-MEL-28 melanoma cells. 100 μM of 8-PN-induced a G2 arrest in both cells. (B) FACS analyses of BLM and SK-MEL-28 melanoma cells treated with 100 μM 6-PN or 8-PN and stained for annexin V/PI; staurosporin was used as control for apoptosis induction and DMSO as vehicle control. […] (C) BLM and SK-MEL-28 melanoma cells were treated with 100 μM of PNs; TSA, SAHA and EMSO were used as controls.
To further analyze the possibility of apoptosis induction, an extensive apoptosis assay was performed on SK-MEL-28 melanoma cells 4 hours after treatment with 100 μM 6-PN or 8-PN (FIG. 9). […] This was verified by FACS cell cycle analyses to screen for a possible increase of the sub-G1 fraction of cells (apoptotic cells) or for the induction of a G2 arrest (inhibition of proliferation). […] To further differentiate between the induction of apoptosis and/or necrosis an PI/Annexin V staining of SK-MEL-28 and BLM cells was performed 4 hours and 24 hours after the treatment with 6-PN or 8-PN; 10 μM staurosporin (6 hours treatment) was used as positive control for the induction of apoptosis; DMSO treatment was used as vehicle control. The cells were then analyzed by FACS.

[3] = test system: LOXIMVI melanoma cells; experiment: Organotypic human epidermal skin reconstructs, LOXIMVI; format: cell-based; conditions: same treatment conditions (100 μM), untreated 100% MIB1 positive
Procedure: FIG. 11: 6-PN and 8-PN reduce proliferation and invasion of BLM and LOXIMVI melanoma cells in human epidermal skin reconstructs and induce little embryo toxicity. (A) BLM melanoma cells and keratinocytes were seeded on top of a collagen matrix populated by fibroblasts. After 16 days a keratinizing stratified epithelium with a rudimentary corium is formed. […] (B) Similar results were obtained for LOXIMVI melanoma cells under the same treatment conditions. Only nests of dead, MIB1 negative LOXIMVI cells were detected after treatment with the PNs. […]
In this assay, keratinocytes and melanoma cells are seeded on top of a collagen matrix populated by fibroblasts. […] Untreated control BLM cells (depicting 70-80% proliferation, determined by MIB1 immunhistochemistry) had formed a large tumor in the epidermal part of the reconstruct and had invaded the corium (FIG. 11A, upper panel). To determine the amount of proliferating cells, the number of MIB1 positive melanoma cells per power field in the epidermal part of the reconstruct at the epidermal-dermal border was counted (40× magnification, n=5 adjacent fields examined). Further, the number of melanoma cells invading the dermal part of the reconstruct was counted in the same high power fields. In reconstructs with untreated BLM cells, 103±15 MIB1 positive cells and 39±13 invasive cells were counted (FIG. 11A, upper panel). […]

[4] = test system: MCF7-cells; conditions: cited from earlier work
[5] = test system: prostate cancer cell line DU145; conditions: DU145 in vitro; cited from earlier work

## CC(C)=CCc1c(O)cc(O)c2c1OC(c1ccc(O)cc1)CC2=O (centres unmarked) [8-PN, 5,7-Dihydroxy-2-(4-hydroxy-phenyl)-8-(3-methyl-but-2-enyl)-chroman-4-one]
[1]
  histon complex H3 acetylation: massive increase
[2]; 4 hours
  annexin V positive (apoptotic) cells: 0.2%
  PI positive (nectrotic) cells: 29.9%
[2]; 24 hours
  annexin V positive (apoptotic) cells: 0.5%
  PI positive (nectrotic) cells: 58.2%
[3]
  cell proliferation of LOXIMVI cells (MIB1): completely inhibited
[4]
  apoptosis: induces the apoptosis
[5]
  antiproliferative effects: antiproliferative effects
